Assay results: PMC6272448, “Synthesis, ^18F-Radiolabelling and Biological Characterization of Novel Fluoroalkylated Triazine Derivatives for in Vivo Imaging of Phosphodiesterase 2A in Brain via Positron Emission Tomography” (Molecules, 2015)

Experiments:
PDE2A = target: T1, PDE2A (Rattus norvegicus, UniProt Q01062); assay: in vitro autoradiography on sagittal rat brain sections; format: binding; conditions: sagittal rat brain slices, ~1 MBq/mL, 60 min incubation
T1 construct: from tissue; host or cells: sagittal brain sections of female SPRD rats
T1 sequence (Q01062 1-928): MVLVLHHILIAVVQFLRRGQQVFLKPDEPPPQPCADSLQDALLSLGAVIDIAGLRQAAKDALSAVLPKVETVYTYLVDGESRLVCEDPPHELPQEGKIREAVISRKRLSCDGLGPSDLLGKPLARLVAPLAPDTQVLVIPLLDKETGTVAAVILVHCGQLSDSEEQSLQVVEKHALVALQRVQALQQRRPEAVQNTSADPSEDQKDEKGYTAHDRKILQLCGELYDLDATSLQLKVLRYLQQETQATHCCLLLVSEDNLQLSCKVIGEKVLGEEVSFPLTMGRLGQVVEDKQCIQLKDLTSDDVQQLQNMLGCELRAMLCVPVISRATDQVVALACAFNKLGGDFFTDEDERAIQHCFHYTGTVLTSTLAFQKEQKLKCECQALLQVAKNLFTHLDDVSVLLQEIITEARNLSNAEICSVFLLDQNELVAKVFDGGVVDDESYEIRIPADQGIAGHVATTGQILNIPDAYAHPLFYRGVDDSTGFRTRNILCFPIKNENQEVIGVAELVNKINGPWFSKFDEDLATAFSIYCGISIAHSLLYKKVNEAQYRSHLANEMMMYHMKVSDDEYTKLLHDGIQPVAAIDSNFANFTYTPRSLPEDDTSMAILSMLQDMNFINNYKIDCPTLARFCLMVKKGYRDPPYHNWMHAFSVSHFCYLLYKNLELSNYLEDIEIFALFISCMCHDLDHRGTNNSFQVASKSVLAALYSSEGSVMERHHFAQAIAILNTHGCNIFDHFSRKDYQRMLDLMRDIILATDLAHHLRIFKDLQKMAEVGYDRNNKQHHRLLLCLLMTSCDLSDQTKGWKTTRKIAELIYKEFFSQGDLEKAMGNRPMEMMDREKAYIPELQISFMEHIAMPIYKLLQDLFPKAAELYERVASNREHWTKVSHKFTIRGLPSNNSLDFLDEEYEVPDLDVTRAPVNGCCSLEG
Description: In vitro autoradiographic studies were accomplished by incubating sagittal sections of rat brain with [^18F]TA3 or [^18F]TA4. […] The images shown in Figure 6 indicate region-specific accumulation of both radioligands [^18F]TA3 and [^18F]TA4, which is consistent with the distribution pattern of PDE2A protein in rat brain [9, 11]. Therefore, we assume that the novel radioligands might be appropriate for in vitro imaging of PDE2A.
Frozen sagittal brain sections obtained from female SPRD rats (10–12 weeks old) were thawed, dried in a stream of cold air, and preincubated for 20 min with incubation buffer (50 mM TRIS-HCl, pH 7.4, 120 mM NaCl, 5 mM KCl, 2 mM CaCl2, 5 mM MgCl2) at ambient temperature. Brain sections were incubated with ~1 MBq/mL of [^18F]TA3 or [^18F]TA4 in incubation buffer for 60 min at ambient temperature. Afterwards sections were washed twice with 50 mM TRIS-HCl (pH 7.4) for 2 min at 4 °C, dipped briefly in ice-cold deionized water, dried in a stream of cold air and exposed for 60 min to an ^18F-sensitive image plate that was analyzed afterwards using an image plate scanner (HD-CR 35; Duerr NDT GmbH, Bietigheim Bissingen, Germany).

[1] = in vivo metabolism in mice, conventional extraction and RP-HPLC; conditions: CD-1 mice, 30 min p.i., 150 MBq, extraction + RP-HPLC
Description: In vivo metabolism of [^18F]TA3 and [^18F]TA4 was investigated in plasma and brain samples obtained from CD-1 mice at 30 min post injection of 150 MBq of each radioligand. Analysis of the samples was performed after protein precipitation and twofold extraction using an organic solvent. […] In brain samples, 50% of total activity were represented by intact [^18F]TA3 (Figure 7; recovery: 65%).
The radioligands [^18F]TA3 or [^18F]TA4 (~60 MBq in 150 µL isotonic saline) were injected via the tail vein in female CD-1 mice (10–12 weeks old). Brain and blood samples were obtained at 30 min p.i., plasma separated by centrifugation (14,000× g, 1 min), and brain homogenized in ~1 mL isotonic saline on ice (10 strokes of a PTFE plunge at 1000 rpm in a borosilicate glass cylinder; Potter S Homogenizer, B. Braun Melsungen AG, Melsungen, Germany).
Twofold extractions of plasma (2 × 50 µL, 30 min p.i.) and brain samples (2 × 250 µL, 30 min p.i.) were performed using a mixture of ice-cold acetone/water (8:2, v/v; plasma or brain sample/organic solvent, 1:4, v/v). The samples were vortexed for 1 min, incubated on ice for 10 min (first extraction) or 5 min (second extraction) and centrifuged at 10,000 rpm for 5 min. Supernatants were collected and the precipitates were re-dissolved in ice-cold acetone/water for the second extraction. Aliquots from supernatants of each extraction step were taken. Activity thereof and of the precipitates was quantified using an automated gamma counter (1480 WIZARD, Fa. Perkin Elmer). The supernatants from both extractions were combined, concentrated under nitrogen stream at 70 °C and analyzed by radio-HPLC (system B).

Row | SMILES | regional binding in autoradiography (PDE2A) | intact radioligand in brain [1] | non-metabolized (intact) radioligand in plasma [1]
1 | COc1ccc2nnc3c(C)nc(-c4cc(OCCC[18F])ccc4F)n3c2n1 [[^18F]TA3] | higher binding densities in cortex and striatum than in cerebellum | 50 % of total activity | 8 % of total activity
2 | COc1ccc2nnc3c(C)nc(-c4cc(OCCCC[18F])ccc4F)n3c2n1 [[^18F]TA4] | also binds to the olfactory tubercle, colliculi and partly to cerebellum | No intact [^18F]TA4 was detectable | 6 % of total activity
